Earlier results, collected in patent publication US20160101114A1, “ARTICLES AND METHODS FOR PREVENTING AND TREATING DERMATOLOGIC ADVERSE EVENTS” (SLOAN-KETTERING INSTITUTE FOR CANCER RESEARCH, priority 2013, published 2016).

Conditions: cancer therapies with multikinase inhibitors

## CNC(=O)c1ccccc1Sc1ccc2c(/C=C/c3ccccn3)n[nH]c2c1 [axitinib]
  all grade incidence of hand foot syndrome: 29%

## COc1cc2nccc(Oc3ccc(NC(=O)C4(C(=O)Nc5ccc(F)cc5)CC4)cc3)c2cc1OC [cabozantinib]
  all grade incidence of hand foot syndrome: 50%

## Cc1ccc(Nc2nccc(N(C)c3ccc4c(C)n(C)nc4c3)n2)cc1S(N)(=O)=O [pazopanib]
  all grade incidence of hand foot syndrome: 5%

## CNC(=O)c1cc(Oc2ccc(NC(=O)Nc3ccc(Cl)c(C(F)(F)F)c3)c(F)c2)ccn1 [regorafenib]
  all grade incidence of hand foot syndrome: 46%

## CNC(=O)c1cc(Oc2ccc(NC(=O)Nc3ccc(Cl)c(C(F)(F)F)c3)cc2)ccn1 [sorafenib]
  all grade incidence of hand foot syndrome: 60%

## CCN(CC)CCNC(=O)c1c(C)[nH]c(/C=C2\C(=O)Nc3ccc(F)cc32)c1C [sunitinib]
  all grade incidence of hand foot syndrome: 30%

## COc1cc2c(Nc3ccc(Br)cc3F)ncnc2cc1OCC1CCN(C)CC1 [vandetanib]
  all grade incidence of hand foot syndrome: 5%

## ziv-aflibercept
  all grade incidence of hand foot syndrome: 2%
